From patent US5817840A, “Water soluble taxol derivatives” (The Scripps Research Institute, priority 1997, dated 1998)
pIC50: −log10 of the molar value.

Assays:
Assay type in all cases: cell-based
MCF-7 (breast carcinoma) = assay: Cytotoxicity, Example 8; details: Homo sapiens, MCF7, 72 h
Protocol: (§1) Tumor or normal cells were cultured in 96-well plates with the test compound in 200 μl of RPMI supplemented with 10% fetal bovine serum (Hyclone, Salt Lake City, Utah) at 37° C. in a humidified atmosphere containing 5% CO2 in air for 72 hours. Sulforhodamine B dissolved in 1% acetic acid was added, and the plates were incubated for 30 minutes at ambient temperature, washed with 1% acetic acid, and blotted. To the air-dried plates were added 100 μl of […] unbuffered TRIS base (pH 10.5) with shaking. The optical densities of the plates were measured with a microplate reader (Molecular Devices Thermomax) at 540 nm. The concentration of compound required to reduce the absorbance to 50% of control samples was recorded as IC50.
(§2) NHDF: Normal human dermal fibroblast (available from Clouelics Corp., San Diego, Calif.); HLF-1: Normal human diploid lung; W1-38; Normal human diploid lung; CHO; Chinese hamster ovary; SK-MEL-28: Melanoma; CAPAN-1: Pancreatic carcinoma; H322: lung carcinoma; MCF-7; Breast carcinoma; BT-549; Human breast ductal carcinoma; OVCAR-3: Human ovarian carcinoma; HT-29: Human adenocarcinoma, colon; SIHA: Human squamous carcinoma crvx; 786-0: Human perirenal cell adenocarci; PC-3: Human prostate adenocarcinoma; HL-60: Human promyelomic leukemia; MOLT-4: Human T-cell leukemia. All cell lines except NHDF are available from the American Tissue Culture Collection, Rockville, Md.

[1] = tested on: HLF-1 (normal human diploid lung); assay: Cytotoxicity, Example 8; details: HLF1, 72 h
Protocol: as §1, §2

[2] = tested on: S1HA (human squamous carcinoma crvx); assay: Cytotoxicity, Example 8; details: 72 h
Protocol: as §1, §2

SK-MEL-28 (melanoma) = assay: Cytotoxicity, Example 8; details: Homo sapiens, SK-MEL-28, 72 h
Protocol: as §1, §2

[3] = tested on: W1-38 (normal human diploid lung); assay: Cytotoxicity, Example 8; details: W138, 72 h
Protocol: as §1, §2

[4] = tested on: CAPAN-1 (pancreatic carcinoma); assay: Cytotoxicity, Example 8; details: Homo sapiens, CAPAN-1, 72 h
Protocol: as §1, §2

[5] = tested on: PC-3 (human prostate adenocarcinoma); assay: Cytotoxicity, Example 8; details: 72 h
Protocol: as §1, §2

[6] = tested on: 786-0 (human perirenal cell adenocarci); assay: Cytotoxicity, Example 8; details: 786-0, 72 h
Protocol: as §1, §2

H322 (lung carcinoma) = assay: Cytotoxicity, Example 8; details: NCI-H322, 72 h
Protocol: as §1, §2

[7] = tested on: NHDF (normal human dermal fibroblast); assay: Cytotoxicity, Example 8; details: 72 h
Protocol: as §1, §2

[8] = tested on: HT-29 (human adenocarcinoma, colon); assay: Cytotoxicity, Example 8; details: HT-29, 72 h
Protocol: as §1, §2

[9] = tested on: BT-549 (human breast ductal carcinoma); assay: Cytotoxicity, Example 8; details: BT-549, 72 h
Protocol: as §1, §2

[10] = tested on: CHO (Chinese hamster ovary); assay: Cytotoxicity, Example 8; details: Cricetulus griseus, 72 h
Protocol: as §1, §2

[11] = tested on: OVCAR-3 (human ovarian carcinoma); assay: Cytotoxicity, Example 8; details: OVCAR-3, 72 h
Protocol: as §1, §2

[12] = tested on: RPMI-7666 (normal human PBLs); assay: Cytotoxicity (sulphorhodamine B), normal cell line, Table 1B; details: 72 h
Protocol: (§3) The cytotoxicities were determined using the sulphorhodamine B assay method (Skehan, P. et al. J. Nat. Canc. Inst. 82, 1107 (1990)).

Capan-1 (pancreatic) = assay: Cytotoxicity (sulphorhodamine B), cancer cell line, Table 1B; details: Homo sapiens, CAPAN-1, 72 h
Protocol: as §3

[13] = tested on: MOLT-4 (T-cell leukaemia); assay: as above; details: Homo sapiens, MOLT-4, 72 h
Protocol: as §3

SK (melanoma) = assay: as above; details: 72 h
Protocol: as §3

[14] = tested on: PC-3 (prostate carcinoma); assay: as above; details: Homo sapiens, 72 h
Protocol: as §3

NHDF (normal human skin) = assay: Cytotoxicity (sulphorhodamine B), normal cell line, Table 1B; details: 72 h
Protocol: as §3

CC(=O)O[C@H]1C(=O)[C@@]2(C)[C@H]([C@H](OC(=O)c3ccccc3)[C@]3(O)C[C@H](OC(=O)[C@H](OC(=O)CS(=O)(=O)CC(=O)O)[C@@H](NC(=O)c4ccccc4)c4ccccc4)C(C)=C1C3(C)C)[C@]1(OC(C)=O)CO[C@@H]1C[C@@H]2O [Compound 5]
pIC50 (MCF-7 (breast carcinoma)): 4.21
pIC50 [1]: 4.89
pIC50 [2]: 4.30
pIC50 (SK-MEL-28 (melanoma)): 4.00
pIC50 [3]: 4.89
pIC50 [4]: 6.72
pIC50 [5]: 4.30
pIC50 [6]: 6.89
pIC50 (H322 (lung carcinoma)): 5.30
pIC50 [7]: 6.72
pIC50 [8]: 7.01
pIC50 [9]: 7.01
pIC50 [10]: 4.00
pIC50 [11]: 7.01
pIC50 [12]: 4.00
pIC50 (Capan-1 (pancreatic)): > 9.00
pIC50 [13]: 9.00
pIC50 (SK (melanoma)): 5.00
pIC50 [14]: 6.00
pIC50 (NHDF (normal human skin)): 6.00
